Experiments:
Format in all cases: in vivo
[1] = test system: Aphis craccivora (Black bean aphid); experiment: Aphis craccivora (Black bean aphid), mixed population, systemic/feeding, pea seedlings in test solutions; details: 120 h, application rate of 24 ppm, assessed 5 days later, read-out: growth inhibition
Procedure: Aphis craccivora (Black bean aphid), mixed population, systemic/feeding Pea seedlings infested with mixed aged aphid population, were put into glass vials with test solutions. 5 days later, samples were assessed for mortality.

[2] = test system: Myzus persicae (Green peach aphid); experiment: Myzus persicae (Green peach aphid) intrinsic activity, sucrose solution feeding through Parafilm; details: test rate of 12 ppm, assessed 5 days after infestation; for mortality at 12 ppm: Myzus persicae, 120 h
Excerpt: Myzus persicae (Green peach aphid) Intrinsic activity
Test compounds prepared from 10,000 ppm DMSO stock solutions were applied by pipette into 24-well microtiter plates and mixed with sucrose solution. The plates were closed with a stretched Parafilm. A plastic stencil with 24 holes was placed onto the plate and infested pea seedlings were placed directly on the Parafilm. The infested plate was closed with a gel blotting paper and another plastic stencil and then turned upside down. The samples were assessed for mortality 5 days after infestation.

[3] = test system: Myzus persicae (Green peach aphid); experiment: Myzus persicae (Green peach aphid) feeding/contact activity, sprayed eggplant leaf discs; details: application rate of 200 ppm, assessed 6 days after infestation
Procedure: Myzus persicae (Green peach aphid) Feeding/Contact activity Eggplant leaf discs were placed onto agar in a 24-well microtiter plate and sprayed with aqueous test solutions prepared from 10,000 ppm DMSO stock solutions. After drying, the leaf discs were infested with an aphid population of mixed ages. The samples were assessed for mortality 6 days after infestation.

[4] = test system: Myzus persicae (Green peach aphid); experiment: Myzus persicae (Green peach aphid) systemic activity, pea seedling roots in test solution; details: 144 h, test rate of 24 ppm, assessed 6 days after placing seedlings into test solutions
Procedure: Myzus persicae (Green peach aphid) Systemic activity
Roots of pea seedlings infested with an aphid population of mixed ages were placed directly into aqueous test solutions prepared from 10,000 DMSO stock solutions. The samples were assessed for mortality 6 days after placing seedlings into test solutions.

Compound: OCCCCCCC1CC1(F)Br (stereo not shown) [Compound A7, 6-(2-bromo-2-fluoro-cyclopropyl)hexan-1-ol]
- inhibition at 24 ppm [1]: ≥ 80%

Compound: N-[4-(2-bromo-2-fluoro-cyclopropyl)butyl]-3,5-dimethyl-isoxazole-4-sulfonamide [Compound A11]
- mortality [2]: at least 80%

Compound: N-[4-(2-bromo-2-fluoro-cyclopropyl)butyl]-2,3-dihydro-1,4-benzodioxine-5-sulfonamide [Compound A27]
- growth inhibition [3]: at least 80%

Compound: O=C(NCCCCCCC1CC1(F)Br)c1ccccc1 (stereo not shown) [Compound A4, N-[6-(2-bromo-2-fluoro-cyclopropyl)hexyl]benzamide]
- mortality at 24 ppm [4]: ≥ 80%

Compound: OCCCCC1CC1(F)Br (stereo not shown) [Compound A9, 4-(2-bromo-2-fluoro-cyclopropyl)butan-1-ol]
- mortality at 12 ppm [2]: ≥ 80%
- inhibition at 24 ppm [1]: ≥ 80%

Compound: O=C(OCCCCCCC1CC1(F)Br)c1ccccc1 (stereo not shown) [Compound A8, 6-(2-bromo-2-fluoro-cyclopropyl)hexyl benzoate]
- inhibition at 24 ppm [1]: ≥ 80%

Compound: O=C(NCCCCC1CC1(F)Br)N1CCCCC1 (stereo not shown) [Compound A43, N-[4-(2-bromo-2-fluoro-cyclopropyl)butyl]piperidine-1-carboxamide]
- mortality at 12 ppm [2]: ≥ 80%

Compound: N-[4-(2-bromo-2-fluoro-cyclopropyl)butyl]-6-methyl-pyridine-3-sulfonamide [Compound A10]
- growth inhibition [3]: at least 80%

Compound: O=C(NCCCCC1CC1(F)Br)C1CC1 (stereo not shown) [Compound A24, N-[4-(2-bromo-2-fluoro-cyclopropyl)butyl]cyclopropanecarboxamide]
- inhibition at 200 ppm ([3]; Myzus persicae, foliar, 144 h, read-out: growth inhibition): ≥ 80%

From patent EP4667451A1, “PESTICIDALLY-ACTIVE 2,2-DIHALOCYCLOPROPYL COMPOUNDS” (Syngenta Crop Protection AG, priority 2024, dated 2025)
